From patent publication US8324177B2, “Triterpene compositions and methods for use thereof” (Research Development Foundation, priority 1998, dated 2012)

System: poly (ADP-ribose) polymerase (PARP) cleavage in Jurkat cells
Test: Immunoblot analysis of PARP degradation
Assay type: cell-based, human
Conditions: 100 μM, 1 h pretreatment
Method: Apoptosis induced by F035 & D1 was examined by proteolytic cleavage of poly (ADP-ribose) polymerase (PARP). Jurkat cells (2×10^6/ml) were treated with F035 (2 μg/ml) and D1 (2 μg/ml) for different lengths of time. Cell lysates were prepared in buffer containing 20 mM HEPES, 250 mM NaCl, 2 mM EDTA, 0.1% NP-40, 2 μg/ml leupeptin, 2 μg/ml aprotinin, 0.5 μg/ml benzamidine, 1 mM DTT and 1 mM PMSF. Cellular proteins (60 μg/ml) were separated on a 7.5% SDS polyacrylamide gel and electrotransferred onto a nitrocellulose membrane. The membrane was probed first with monclonal anti-PARP antibody (PharMingen) and then with anti-mouse antibody conjugated to horse radish peroxidase (HRPO). Protein bands were detected by chemiluminescense (ECL, Amersham). The extent of cleavage of the 116-kDa PARP into 85-kDa and 41-kDa peptide products was used as a measure of apoptosis (Tewari et al., 1995).

## z-vad fmk
  Effect on F035 induced cleavage of PARP (in words): completely reversed
